According to PubChem BioAssay AID2060508 (Molecular Pharmacology Branch, DTP, NCI, 2025):

Test system: 454973-116-R2-J3-PDC spheroids, viability, % test/control
Experiment: Anticancer human tumor 454973-116-R2-J3-PDC patient-derived pancreatic carcinoma cell line growth inhibition [GQUAD]
Details: spheroids with HUVEC and MSC; for IC50: curve of first compound; for viability, T/C: stronger effect = lower value
Text: DNA G-quadruplex Stabilizer Agents in Combinations in Complex Spheroids
A high-throughput screen of multi-cell type tumor spheroids was designed to identify active combinations of DNA G-quadruplex stabilizer agents and targeted small molecules. Complex spheroids include a stromal component modeled by human endothelial cells (HUVEC) and fibroblasts modeled by human mesenchymal stem cells (MSCs). The concentration ranges selected for each drug and investigational agent were based upon clinically achievable concentrations if the clinical Cmax of the agent was known.
Compounds. The drugs and investigational agents: pidnarulex (CX-5461; NSC782164), APTO-253 (NSC789042), BRACO-19 (NSC847499), peposertib (NSC802822), ceralasertib (NSC780249), elimusertib (NSC800525), camonsertib (NSC841442), AZD-1390 (NSC803789), olaparib (NSC753686), talazoparib (NSC767125), ART-558 (NSC835418), sotorasib (NSC818433), MRTX-1133 (NSC836407), SN-38 (NSC673596), topotecan (NSC609699), etoposide (NSC141540), doxorubicin (NSC123127), gemcitabine (NSC613327), 5-fluorouracil (NSC19893), paclitaxel (NSC125973), vemurafenib (NSC761431), panobinostat (NSC761190), R-306465 (JNJ-16241199; NSC773264), adavosertib (NSC754352), TP-3654 (NSC805149), carboplatin (NSC241240), KSQ-4279 (NSC840948), and staurosporine (NSC755774) were obtained from the National Cancer Institute (NCI) Developmental Therapeutics Program Chemical Repository (34). The FDA-approved anticancer drug set is available from the NCI Developmental Therapeutics Program. […] The stock solutions were prepared in dimethyl sulfoxide (DMSO, Sigma-Aldrich, St. Louis, MO, cat. D2650) at 800-fold the tested concentration and stored at -70 degrees C prior to their use. All drugs and investigational agents were tested over a range starting from a high concentration at or near the clinical Cmax and decreasing in half-log increments. If the clinical Cmax for an agent had not been determined, the highest concentration tested was 10 microM.
2.3 Cell Culture. All cells were maintained in an incubator at 37 degrees C and 5% CO2 with 95% humidity. The PDC lines were cultured according to standard operating procedures established by the NCI PDMR. All PDCs were thawed and cultured in Matrigel-coated flasks prepared with a working solution of 1X Ham's F-12 nutrient mix, without supplementation (Invitrogen, cat. 11765054), 100 U/mL penicillin-streptomycin (Invitrogen, cat. 15140122), and 2.5% Matrigel (Corning Inc., cat. 354248) for the first three passages. The 857933-349-R-J2-PDC line was cultured in 6C/Colon 1B media, which includes advanced DMEM/F-12 (Thermo Fisher Scientific, cat. 12634028), 10 mM HEPES (Thermo Fisher Scientific, cat. 15630080), 1X GlutaMAX supplement (Thermo Fisher Scientific, cat. 35050061), 0.1 mg/mL primocin (InvivoGen, cat. ant-pm-2), 10% defined fetal bovine serum, heat inactivated (HyClone Laboratories Inc., cat. SH30070.03HI), 50% L-WRN conditioned media (ATCC, cat. CRL-3276), 1.25 mM N-Acetyl-L-cysteine (Sigma-Aldrich, cat. A9165), 10 mM nicotinamide (Sigma-Aldrich, cat. N0636), 1X B-27 supplement (Thermo Fisher Scientific, cat. 17504044), 1X N-2 supplement (Thermo Fisher Scientific, cat. 17502048), 10 microM Y-27632 dihydrochloride (Tocris Bioscience, cat. 1254), and 50 ng/mL human EGF recombinant protein (Thermo Fisher Scientific, cat. PHG0311). The 485176-168-R4-J1-PDC line was cultured in Panc media, which includes all 6C/Colon 1B media components plus 100 ng/mL human FGF-10 (Thermo Fisher Scientific, cat. 100-26), 500 nM SB-431542 (Selleckchem, cat. S1067), and gastrin (Tocris, cat. 3006).
[…]
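Further: spheroids exposed to compounds for seven days.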

For `CC(=O)O[C@H]1C(=O)[C@@]2(C)[C@H]([C@H](OC(=O)c3ccccc3)[C@]3(O)C[C@H](OC(=O)[C@H](O)[C@@H](NC(=O)c4ccccc4)c4ccccc4)C(C)=C1C3(C)C)[C@]1(OC(C)=O)CO[C@@H]1C[C@@H]2O` + CN(C)c1ccc(Nc2c3ccc(NC(=O)CCN4CCCC4)cc3nc3cc(NC(=O)CCN4CCCC4)ccc23)cc1, which IC50 (second compound 0.0316 µM) is on record?
Its IC50 is under 31.6 nM.

And the IC50 (second compound 0.1 µM)?
Its IC50 is under 31.6 nM.

What about the IC50 (second compound 0.316 µM) of the same compound?
The IC50 was under 31.6 nM.

What about the IC50 (second compound 1 µM) of the same compound?
The IC50 was under 31.6 nM.

And the IC50 (second compound 3.16 µM)?
Its IC50 is under 31.6 nM.

What about the IC50 (second compound 10 µM) of the same compound?
Its IC50 is under 31.6 nM.

And the viability, T/C (second compound 0.0316 µM, first compound 0.0316 µM)?
The viability, T/C was 16.5%.

And the viability, T/C (second compound 0.0316 µM, first compound 0.1 µM)?
Its viability, T/C is 8.43%.

What about the viability, T/C (second compound 0.0316 µM, first compound 0.316 µM) of the same compound?
Its viability, T/C is 9.5%.

What about the viability, T/C (second compound 0.0316 µM, first compound 1 µM) of the same compound?
The viability, T/C was 7.36%.

What about the viability, T/C (second compound 0.0316 µM, first compound 3.16 µM) of the same compound?
Its viability, T/C is 8.24%.

And the viability, T/C (second compound 0.0316 µM, first compound 10 µM)?
Its viability, T/C is 10.1%.

What about the viability, T/C (second compound 0.1 µM, first compound 0.0316 µM) of the same compound?
The viability, T/C was 16%.

And the viability, T/C (second compound 0.1 µM, first compound 0.1 µM)?
The viability, T/C was 11.7%.

What about the viability, T/C (second compound 0.1 µM, first compound 0.316 µM) of the same compound?
The viability, T/C was 7.58%.

What about the viability, T/C (second compound 0.1 µM, first compound 1 µM) of the same compound?
The viability, T/C was 6.11%.

And the viability, T/C (second compound 0.1 µM, first compound 3.16 µM)?
The viability, T/C was 8.15%.

What about the viability, T/C (second compound 0.1 µM, first compound 10 µM) of the same compound?
The viability, T/C was 7.98%.

And the viability, T/C (second compound 0.316 µM, first compound 0.0316 µM)?
The viability, T/C was 14%.

And the viability, T/C (second compound 0.316 µM, first compound 0.1 µM)?
Its viability, T/C is 10%.

And the viability, T/C (second compound 0.316 µM, first compound 0.316 µM)?
Its viability, T/C is 8.64%.

And the viability, T/C (second compound 0.316 µM, first compound 1 µM)?
Its viability, T/C is 7.04%.

And the viability, T/C (second compound 0.316 µM, first compound 3.16 µM)?
Its viability, T/C is 8.84%.

And the viability, T/C (second compound 0.316 µM, first compound 10 µM)?
Its viability, T/C is 10.1%.

And the viability, T/C (second compound 1 µM, first compound 0.0316 µM)?
Its viability, T/C is 16%.

And the viability, T/C (second compound 1 µM, first compound 0.1 µM)?
The viability, T/C was 8.67%.

And the viability, T/C (second compound 1 µM, first compound 0.316 µM)?
Its viability, T/C is 6.76%.

What about the viability, T/C (second compound 1 µM, first compound 1 µM) of the same compound?
The viability, T/C was 7.25%.

And the viability, T/C (second compound 1 µM, first compound 3.16 µM)?
The viability, T/C was 6.69%.

What about the viability, T/C (second compound 1 µM, first compound 10 µM) of the same compound?
The viability, T/C was 9.71%.

And the viability, T/C (second compound 3.16 µM, first compound 0.0316 µM)?
Its viability, T/C is 15.5%.

What about the viability, T/C (second compound 3.16 µM, first compound 0.1 µM) of the same compound?
The viability, T/C was 9.08%.

And the viability, T/C (second compound 3.16 µM, first compound 0.316 µM)?
Its viability, T/C is 8.56%.

What about the viability, T/C (second compound 3.16 µM, first compound 1 µM) of the same compound?
The viability, T/C was 6.91%.

And the viability, T/C (second compound 3.16 µM, first compound 3.16 µM)?
The viability, T/C was 6.53%.

And the viability, T/C (second compound 3.16 µM, first compound 10 µM)?
The viability, T/C was 8.28%.

And the viability, T/C (second compound 10 µM, first compound 0.0316 µM)?
The viability, T/C was 21.6%.

What about the viability, T/C (second compound 10 µM, first compound 0.1 µM) of the same compound?
The viability, T/C was 12.1%.

What about the viability, T/C (second compound 10 µM, first compound 0.316 µM) of the same compound?
The viability, T/C was 8.85%.

And the viability, T/C (second compound 10 µM, first compound 1 µM)?
Its viability, T/C is 7.09%.

What about the viability, T/C (second compound 10 µM, first compound 3.16 µM) of the same compound?
Its viability, T/C is 8.15%.

What about the viability, T/C (second compound 10 µM, first compound 10 µM) of the same compound?
The viability, T/C was 8.56%.

How did the viability, T/C (compound 0.0316 µM) turn out when `Cc1cnc(CNC(=O)c2c(=O)c3ccc(N4CCCN(C)CC4)nc3n3c2sc2ccccc23)cn1` was run?
Its viability, T/C is 92.6% [middle of 12 runs].

What about the viability, T/C (compound 0.1 µM) of the same compound?
The viability, T/C was 82.4% [middle of 12 runs].

What about the viability, T/C (compound 0.316 µM) of the same compound?
The viability, T/C was 74% [middle of 12 runs].

What about the viability, T/C (compound 1 µM) of the same compound?
Its viability, T/C is 72.2% [middle of 12 runs].

What about the viability, T/C (compound 3.16 µM) of the same compound?
Its viability, T/C is 64.6% [middle of 12 runs].
